{
  "source": "patent US10111848B2",
  "about": "(National Institute of Health and Medical Research, priority 2012, dated 2018)",
  "system": "Subjects exhibiting GLUT1 deficiency",
  "assay": "Treatment of subjects exhibiting GLUT1 deficiency with triheptanoin (Example 1)",
  "assay_type": "in vivo",
  "settings": "triheptanoin with each meal, about 30-35% of caloric intake, with or without other anti-epileptic drugs",
  "description": "The subjects' seizure frequency is reduced and their neurologic and movement disorder is improved due to the restoration of brain energy metabolism and net biosynthesis.",
  "data": [
    {"smiles": "CCCCCCC(=O)OCC(COC(=O)CCCCCC)OC(=O)CCCCCC", "note": "[triheptanoin, glyceryl triheptanoate]", "values": [
      {"measurement": "neurologic and movement disorder", "result": "improved"},
      {"measurement": "seizure frequency", "result": "reduced"}
    ]}
  ]
}
